Reference: ChEMBL document CHEMBL1155271, “Synthesis, crystal structures and antibacterial activity studies of aza-derivatives of phytoalexin from cotton plant--gossypol” (2009)
Converted amounts (≈) assume the structure as drawn. The source made the active and inactive calls. No cut-off for these calls is given here.

Assays:
Format in all cases: functional
Staphylococcus aureus [1] = test: Antimicrobial activity against Methicillin susceptible Staphylococcus aureus 207/7 by twofold dilution technique
Staphylococcus aureus [2] = test: Antimicrobial activity against methicillin-resistant Staphylococcus aureus 136/6 by twofold dilution technique
Staphylococcus aureus [3] = test: Antimicrobial activity against methicillin-resistant Staphylococcus aureus 217/7 by twofold dilution technique
Staphylococcus aureus [4] = test: Antimicrobial activity against Methicillin susceptible Staphylococcus aureus 206/7 by twofold dilution technique
Staphylococcus aureus [5] = test: Antimicrobial activity against Methicillin susceptible Staphylococcus aureus 243/7 by twofold dilution technique
Staphylococcus aureus [6] = test: Antimicrobial activity against Methicillin susceptible Staphylococcus aureus 237/7 by twofold dilution technique
Staphylococcus aureus [7] = test: Antimicrobial activity against Methicillin susceptible Staphylococcus aureus 213/7 by twofold dilution technique
[8] = tested on: Staphylococcus epidermidis; test: Antimicrobial activity against Staphylococcus epidermidis ATCC 12228 by twofold dilution technique
Staphylococcus aureus [9] = test: Antimicrobial activity against Staphylococcus aureus ATCC 6538 at 400 ug after 18 hrs by disk diffusion method; conditions: ATCC 6538, 18 h, read-out: DIZ
Staphylococcus aureus [10] = test: Antimicrobial activity against methicillin-resistant Staphylococcus aureus 141/6 by twofold dilution technique
Staphylococcus aureus [11] = test: Antimicrobial activity against methicillin-resistant Staphylococcus aureus 218/7 by twofold dilution technique
Enterococcus hirae [12] = test: Antimicrobial activity against Enterococcus hirae ATCC 10541 at 400 ug after 18 hrs by disk diffusion method; conditions: for zone of inhibition at 400 µg/disc: ATCC 10541, 18 h, read-out: DIZ
Staphylococcus aureus [13] = test: Antimicrobial activity against methicillin-resistant Staphylococcus aureus 236/7 by twofold dilution technique
Staphylococcus aureus [14] = test: Antimicrobial activity against Staphylococcus aureus ATCC 29213 after 18 hrs by twofold dilution technique; conditions: ATCC 29213, 18 h
Staphylococcus aureus [15] = test: Antimicrobial activity against Staphylococcus aureus NCTC 4163 at 400 ug after 18 hrs by disk diffusion method; conditions: NCTC 4163, 18 h, read-out: DIZ
Staphylococcus aureus [16] = test: Antimicrobial activity against methicillin-resistant Staphylococcus aureus 200/7 by twofold dilution technique
Staphylococcus aureus [17] = test: Antimicrobial activity against Methicillin susceptible Staphylococcus aureus 238/7 by twofold dilution technique
Enterococcus hirae [18] = test: Antimicrobial activity against Enterococcus hirae ATCC 10541 after 18 hrs by twofold dilution technique; conditions: ATCC 10541, 18 h
Staphylococcus aureus [19] = test: Antimicrobial activity against methicillin-resistant Staphylococcus aureus 144/6 by twofold dilution technique
Micrococcus luteus [20] = test: Antimicrobial activity against Micrococcus luteus ATCC 10240 at 400 ug after 18 hrs by disk diffusion method; conditions: ATCC 10240, 18 h, read-out: DIZ
Staphylococcus aureus [21] = test: Antimicrobial activity against methicillin-resistant Staphylococcus aureus 146/6 by twofold dilution technique
Staphylococcus aureus [22] = test: Antimicrobial activity against Methicillin susceptible Staphylococcus aureus 239/7 by twofold dilution technique
Bacillus subtilis [23] = test: Antimicrobial activity against Bacillus subtilis ATCC 6633 after 18 hrs by twofold dilution technique; conditions: ATCC 6633, 18 h
Micrococcus luteus [24] = test: Antimicrobial activity against Micrococcus luteus ATCC 10240 by twofold dilution technique
Staphylococcus aureus [25] = test: Antimicrobial activity against Staphylococcus aureus ATCC 6538 after 18 hrs by twofold dilution technique; conditions: ATCC 6538, 18 h
Staphylococcus aureus [26] = test: Antimicrobial activity against Methicillin susceptible Staphylococcus aureus 208/7 by twofold dilution technique
Staphylococcus aureus [27] = test: Antimicrobial activity against Methicillin susceptible Staphylococcus aureus 212/7 by twofold dilution technique
Staphylococcus aureus [28] = test: Antimicrobial activity against Staphylococcus aureus ATCC 29213 at 400 ug after 18 hrs by disk diffusion method; conditions: ATCC 29213, 18 h, read-out: DIZ
Bacillus cereus [29] = test: Antimicrobial activity against Bacillus cereus ATCC 11778 after 18 hrs by twofold dilution technique; conditions: ATCC 11778, 18 h
[30] = tested on: Staphylococcus epidermidis; test: Antimicrobial activity against Staphylococcus epidermidis ATCC 12228 at 400 ug after 18 hrs by disk diffusion method; conditions: ATCC 12228, 18 h, read-out: DIZ
Staphylococcus aureus [31] = test: Antimicrobial activity against Staphylococcus aureus ATCC 25923 after 18 hrs by twofold dilution technique; conditions: ATCC 25923, 18 h
Micrococcus luteus [32] = test: Antimicrobial activity against Micrococcus luteus ATCC 9341 at 400 ug after 18 hrs by disk diffusion method
Staphylococcus aureus [33] = test: Antimicrobial activity against methicillin-resistant Staphylococcus aureus 140/6 by twofold dilution technique
Staphylococcus aureus [34] = test: Antimicrobial activity against Staphylococcus aureus NCTC 4163 after 18 hrs by twofold dilution technique; conditions: NCTC 4163, 18 h
Staphylococcus aureus [35] = test: Antimicrobial activity against methicillin-resistant Staphylococcus aureus 143/6 by twofold dilution technique
Staphylococcus aureus [36] = test: Antimicrobial activity against Staphylococcus aureus ATCC 25923 at 400 ug after 18 hrs by disk diffusion method; conditions: ATCC 25923, 18 h, read-out: DIZ
Micrococcus luteus [37] = test: Antimicrobial activity against Micrococcus luteus ATCC 9341 after 18 hrs by twofold dilution technique; conditions: ATCC 9341, 18 h
Bacillus subtilis [38] = test: Antimicrobial activity against Bacillus subtilis ATCC 6633 at 400 ug after 18 hrs by disk diffusion method; conditions: ATCC 6633, 18 h, read-out: DIZ
Staphylococcus aureus [39] = test: Antimicrobial activity against Methicillin susceptible Staphylococcus aureus 242/7 by twofold dilution technique
Bacillus cereus [40] = test: Antimicrobial activity against Bacillus cereus ATCC 11778 at 400 ug after 18 hrs by disk diffusion method; conditions: ATCC 11778, 18 h, read-out: DIZ

Row | Compound | MIC (Staphylococcus aureus [1]) | MIC (Staphylococcus aureus [2]) | MIC (Staphylococcus aureus [3]) | MIC (Staphylococcus aureus [4]) | MIC (Staphylococcus aureus [5]) | MIC (Staphylococcus aureus [6]) | MIC (Staphylococcus aureus [7]) | MIC [8] | zone of inhibition at 400 µg/disc (Staphylococcus aureus [9]) | MIC (Staphylococcus aureus [10]) | MIC (Staphylococcus aureus [11]) | MIC (Staphylococcus aureus [13]) | MIC (Staphylococcus aureus [14]) | zone of inhibition at 400 µg/disc (Staphylococcus aureus [15]) | MIC (Staphylococcus aureus [16]) | MIC (Staphylococcus aureus [17]) | MIC (Enterococcus hirae [18]) | MIC (Staphylococcus aureus [19]) | zone of inhibition at 400 µg/disc (Micrococcus luteus [20]) | MIC (Staphylococcus aureus [21]) | also measured
1 | CCCCOCCOCCN/C=C1\C(=O)C(O)=C(C(C)C)c2cc(C)c(-c3c(C)cc4c(c3O)/C(=C/NCCOCCOCCCC)C(=O)C(O)=C4C(C)C)c(O)c21 | 100 µg/mL (≈ 124 µM) | 50 µg/mL (≈ 62.1 µM) | 200 µg/mL (≈ 248 µM) | 50 µg/mL (≈ 62.1 µM) | 100 µg/mL (≈ 124 µM) | 100 µg/mL (≈ 124 µM) | 100 µg/mL (≈ 124 µM) | > 400 µg/mL | 14 mm | 200 µg/mL (≈ 248 µM) | 100 µg/mL (≈ 124 µM) | 50 µg/mL (≈ 62.1 µM) | 50 µg/mL (≈ 62.1 µM) | 14 mm | 100 µg/mL (≈ 124 µM) | 100 µg/mL (≈ 124 µM) | 100 µg/mL (≈ 124 µM) | 200 µg/mL (≈ 248 µM) | 12 mm | 100 µg/mL (≈ 124 µM) | zone of inhibition at 400 µg/disc (Enterococcus hirae [12]): 12 mm; MIC (Staphylococcus aureus [22]): 100 µg/mL (≈ 124 µM); MIC (Bacillus subtilis [23]): 200 µg/mL (≈ 248 µM); MIC (Micrococcus luteus [24]): 200 µg/mL (≈ 248 µM); MIC (Staphylococcus aureus [25]): 50 µg/mL (≈ 62.1 µM); MIC (Staphylococcus aureus [26]): 100 µg/mL (≈ 124 µM); MIC (Staphylococcus aureus [27]): 200 µg/mL (≈ 248 µM); zone of inhibition at 400 µg/disc (Staphylococcus aureus [28]): 13 mm; MIC (Bacillus cereus [29]): 100 µg/mL (≈ 124 µM); zone of inhibition at 400 µg/disc [30]: 12 mm; MIC (Staphylococcus aureus [31]): 100 µg/mL (≈ 124 µM); diameter of the inhibition zone (DIZ) (Micrococcus luteus [32]): inactive; MIC (Staphylococcus aureus [33]): 100 µg/mL (≈ 124 µM); MIC (Staphylococcus aureus [34]): 100 µg/mL (≈ 124 µM); MIC (Staphylococcus aureus [35]): 100 µg/mL (≈ 124 µM); zone of inhibition at 400 µg/disc (Staphylococcus aureus [36]): 14 mm; MIC (Micrococcus luteus [37]): 100 µg/mL (≈ 124 µM); zone of inhibition at 400 µg/disc (Bacillus subtilis [38]): 12 mm; MIC (Staphylococcus aureus [39]): 50 µg/mL (≈ 62.1 µM); zone of inhibition at 400 µg/disc (Bacillus cereus [40]): 12 mm
2 | COCCOCCOCCN/N=C/c1c(O)c(O)c(C(C)C)c2cc(C)c(-c3c(C)cc4c(C(C)C)c(O)c(O)c(/C=N/NCCOCCOCCOC)c4c3O)c(O)c12 | 400 µg/mL (≈ 477 µM) | 200 µg/mL (≈ 238 µM) | 200 µg/mL (≈ 238 µM) | 200 µg/mL (≈ 238 µM) | 400 µg/mL (≈ 477 µM) | 400 µg/mL (≈ 477 µM) | 400 µg/mL (≈ 477 µM) | > 400 µg/mL | 11 mm | 400 µg/mL (≈ 477 µM) | 400 µg/mL (≈ 477 µM) | 100 µg/mL (≈ 119 µM) | 200 µg/mL (≈ 238 µM) | 11 mm | 400 µg/mL (≈ 477 µM) | 400 µg/mL (≈ 477 µM) | 200 µg/mL (≈ 238 µM) | 400 µg/mL (≈ 477 µM) | 13 mm | 200 µg/mL (≈ 238 µM) | diameter of the inhibition zone (DIZ) (Enterococcus hirae [12]): inactive; MIC (Staphylococcus aureus [22]): 400 µg/mL (≈ 477 µM); MIC (Bacillus subtilis [23]): > 400 µg/mL; MIC (Micrococcus luteus [24]): 400 µg/mL (≈ 477 µM); MIC (Staphylococcus aureus [25]): 200 µg/mL (≈ 238 µM); MIC (Staphylococcus aureus [26]): 400 µg/mL (≈ 477 µM); MIC (Staphylococcus aureus [27]): 400 µg/mL (≈ 477 µM); zone of inhibition at 400 µg/disc (Staphylococcus aureus [28]): 12 mm; MIC (Bacillus cereus [29]): 100 µg/mL (≈ 119 µM); zone of inhibition at 400 µg/disc [30]: 14 mm; MIC (Staphylococcus aureus [31]): 200 µg/mL (≈ 238 µM); diameter of the inhibition zone (DIZ) (Micrococcus luteus [32]): inactive; MIC (Staphylococcus aureus [33]): 200 µg/mL (≈ 238 µM); MIC (Staphylococcus aureus [34]): 200 µg/mL (≈ 238 µM); MIC (Staphylococcus aureus [35]): 400 µg/mL (≈ 477 µM); zone of inhibition at 400 µg/disc (Staphylococcus aureus [36]): 12 mm; MIC (Micrococcus luteus [37]): 400 µg/mL (≈ 477 µM); zone of inhibition at 400 µg/disc (Bacillus subtilis [38]): 11 mm; MIC (Staphylococcus aureus [39]): 100 µg/mL (≈ 119 µM); zone of inhibition at 400 µg/disc (Bacillus cereus [40]): 12 mm
3 | COCCN/N=C/c1c(O)c(O)c(C(C)C)c2cc(C)c(-c3c(C)cc4c(C(C)C)c(O)c(O)c(/C=N/NCCOC)c4c3O)c(O)c12 | 50 µg/mL (≈ 75.4 µM) | 100 µg/mL (≈ 151 µM) | 100 µg/mL (≈ 151 µM) | 50 µg/mL (≈ 75.4 µM) | 100 µg/mL (≈ 151 µM) | 100 µg/mL (≈ 151 µM) | 50 µg/mL (≈ 75.4 µM) | 400 µg/mL (≈ 604 µM) | 13 mm | 100 µg/mL (≈ 151 µM) | 100 µg/mL (≈ 151 µM) | 100 µg/mL (≈ 151 µM) | 50 µg/mL (≈ 75.4 µM) | 14 mm | 50 µg/mL (≈ 75.4 µM) | 50 µg/mL (≈ 75.4 µM) | 100 µg/mL (≈ 151 µM) | 100 µg/mL (≈ 151 µM) | 14 mm | 100 µg/mL (≈ 151 µM) | zone of inhibition at 400 µg/disc (Enterococcus hirae [12]): 11 mm; MIC (Staphylococcus aureus [22]): 100 µg/mL (≈ 151 µM); MIC (Bacillus subtilis [23]): 400 µg/mL (≈ 604 µM); MIC (Micrococcus luteus [24]): 100 µg/mL (≈ 151 µM); MIC (Staphylococcus aureus [25]): 50 µg/mL (≈ 75.4 µM); MIC (Staphylococcus aureus [26]): 50 µg/mL (≈ 75.4 µM); MIC (Staphylococcus aureus [27]): 100 µg/mL (≈ 151 µM); zone of inhibition at 400 µg/disc (Staphylococcus aureus [28]): 14 mm; MIC (Bacillus cereus [29]): 50 µg/mL (≈ 75.4 µM); zone of inhibition at 400 µg/disc [30]: 15 mm; MIC (Staphylococcus aureus [31]): 50 µg/mL (≈ 75.4 µM); diameter of the inhibition zone (DIZ) (Micrococcus luteus [32]): inactive; MIC (Staphylococcus aureus [33]): 50 µg/mL (≈ 75.4 µM); MIC (Staphylococcus aureus [34]): 100 µg/mL (≈ 151 µM); MIC (Staphylococcus aureus [35]): 50 µg/mL (≈ 75.4 µM); zone of inhibition at 400 µg/disc (Staphylococcus aureus [36]): 15 mm; MIC (Micrococcus luteus [37]): 50 µg/mL (≈ 75.4 µM); zone of inhibition at 400 µg/disc (Bacillus subtilis [38]): 13 mm; MIC (Staphylococcus aureus [39]): 50 µg/mL (≈ 75.4 µM); zone of inhibition at 400 µg/disc (Bacillus cereus [40]): 13 mm
